The values that follow come from patent US20160120979A1, “METHOD OF APPLYING A COMPOSITION AND PHARMACEUTICAL COMPOSITION WITH A REGIMEN OF ADMINISTERING IT” (priority 2013, published 2016).

In assay [1] the test system is Staphylococcus aureus MU500. In words: Experiment 12: replication on antibiotic agar after pulsed 400 nm irradiation. To be noted: 24 hours incubation; for E: Staphylococcus aureus MU500 (no irradiation), replication: antibiotic 10 mg/l in MH agar; for F: Staphylococcus aureus MU500 (irradiation), replication: antibiotic 10 mg/l, 400 nm LED pulses 0.02 ms, 1 kHz, 10 minutes. Type of assay: cell-based. The procedure: (§1) 15′000′000 multi-resistant bacteriae (0.050 ml of a McFarland of 1) were put on 40 mm diameter petri dishes. The petri dishes comprised MH agar with or without antibiotic.
The LED power during 0.02 ms was measured to be 0.63 W on a Thorlabs power sensor with a surface area of 2.2×2.2 mm representing a power of 13 mW/cm^2.

Assay [2] deals with multi-drug resistant MU 50 bacterial cells. In words: Experiment 1: killing of MU50 by antibiotic with/without riboflavin and UVA 365 nm (CFU). Type of assay: cell-based, Staphylococcus aureus. As for the experimental part: The first experiment compares the effect of two antibiotics incubated with multi-drug resistant MU 50 bacterial cells accompanied by exposure to UVA light at 365 nm. […] Furthermore, the antibiotics were administered in the presence and absence of riboflavin, to test the free radical effect of riboflavin.
After addition of the antibiotic and optionally riboflavin to the bacterial samples they were incubated for 1 or for 30 minutes in Experiment 1A and for 30 minutes in Experiment 1B prior to the UV-A exposure at 365 nm with 9 mW/cm^2 for 10 minutes.
In Experiment 1B the added antibiotic was tobramycin at a concentration of 135 μg/ml.

The subject of a further assay is Acinetobacter. The assay is described as follows: Experiment 12: replication on antibiotic agar after pulsed 400 nm irradiation. Type of assay: cell-based. The note with it: 24 hours incubation; for C: Acinetobacter (no irradiation), replication: antibiotic 10 mg/l in MH agar; for D Acinetobacter (irradiation), replication: antibiotic 10 mg/l, 400 nm LED pulses 0.02 ms, 1 kHz, 10 minutes. As for the experimental part:
as §1
(§2) […]. The LED power during 0.02 ms was measured to be 0.63 W on a Thorlabs power sensor with a surface area of 2.2×2.2 mm representing a power of 13 mW/cm^2.

The test system of a further assay is Pseudomonas aeruginosa. Described as above. Type of assay: cell-based. The note with it: 24 hours incubation; for A: Pseudomonas aeruginosa (no irradiation), replication: antibiotic 10 mg/l in MH agar; for B: Pseudomonas aeruginosa (irradiation), replication: antibiotic 10 mg/l, 400 nm LED pulses 0.02 ms, 1 kHz, 10 minutes. As for the experimental part:
as §1, §2

[3] abbreviates: ofloxacin 240 μg/ml, incubation 1 min, no riboflavin, no UVA.
Setting [4] is: ofloxacin 240 μg/ml, incubation 1 min, no riboflavin, with UVA 365 nm 9 mW/cm^2 10 min.
[5] abbreviates: ofloxacin 240 μg/ml, incubation 1 min, with riboflavin, no UVA.
Setting [6] is: ofloxacin 240 μg/ml, incubation 1 min, with riboflavin, with UVA 365 nm 9 mW/cm^2 10 min.
The mark [7] stands for this setting: ofloxacin 240 μg/ml, incubation 30 min, no riboflavin, no UVA.
Setting [8] is: ofloxacin 240 μg/ml, incubation 30 min, no riboflavin, with UVA 365 nm 9 mW/cm^2 10 min.
Setting [9] is: ofloxacin 240 μg/ml, incubation 30 min, with riboflavin, no UVA.
Setting [10] is: ofloxacin 240 μg/ml, incubation 30 min, with riboflavin, with UVA 365 nm 9 mW/cm^2 10 min.
Where [11] appears, read: tobramycin 135 μg/ml, incubation 30 min, no riboflavin, with UVA 365 nm 9 mW/cm^2 10 min.
Setting [12] is: tobramycin 135 μg/ml, incubation 30 min, with riboflavin, with UVA 365 nm 9 mW/cm^2 10 min.

Regarding `CC1COc2c(N3CCN(C)CC3)c(F)cc3c(=O)c(C(=O)O)cn1c23` (stereo not shown) [Ofloxacin], the “E: Staphylococcus aureus MU500 (no irradiation), replication” value in assay [1] is listed as “R (Bacteria can replicate after the treatment)”. For the same compound, in assay [1], the “F: Staphylococcus aureus MU500 (irradiation), replication” value (from here on “F: Staphylococcus aureus MU500”) is “PR (Bacteria can replicate partially)”. Also, the CFU first run in assay [2] (setting [3]) amounted to 505 CFU; in assay [2] (setting [4]), 9 CFU; in assay [2] (setting [5]), 574 CFU; in assay [2] (setting [6]) it was 144 CFU; in assay [2] (setting [7]) it was 490 CFU; in assay [2] (setting [8]), 7 CFU. In addition, the CFU first run in assay [2] (setting [9]) is 570 CFU; in assay [2] (setting [10]), 171 CFU. For the same compound, the CFU second run in assay [2] (setting [3]) is listed as 351 CFU; in assay [2] (setting [4]), 9 CFU; in assay [2] (setting [5]), 391 CFU; in assay [2] (setting [6]) it was 98 CFU; in assay [2] (setting [7]), 350 CFU; in assay [2] (setting [8]), 15 CFU. Further, the CFU second run in assay [2] (setting [9]) was 363 CFU; in assay [2] (setting [10]), 193 CFU. Further, the Killed first run is recorded as 12% in assay [2] (setting [3]); 98% in assay [2] (setting [4]); 0% in assay [2] (setting [5]); 75% in assay [2] (setting [6]); 15% in assay [2] (setting [7]); 99% in assay [2] (setting [8]). Further, the figures for the Killed first run in assay [2] (setting [9]) and in assay [2] (setting [10]) were 1% and 70%, respectively. For the same compound, the Killed second run in assay [2] (setting [3]) came out at 14%; in assay [2] (setting [4]), 98%; in assay [2] (setting [5]), 4%; in assay [2] (setting [6]), 76%; in assay [2] (setting [7]), 14%; in assay [2] (setting [8]) it was 96%. In addition, the Killed second run in assay [2] (setting [9]) was determined as 11%; in assay [2] (setting [10]), 53%. Moreover, in the assay on Acinetobacter, the “C: Acinetobacter (no irradiation), replication” value is on record as “R (Bacteria can replicate after the treatment)”. The “D Acinetobacter (irradiation), replication” value (“D Acinetobacter (irradiation)” for short) in the assay with Acinetobacter was “NR (No replication)”. Further, the “A: Pseudomonas aeruginosa (no irradiation), replication” value in the assay with Pseudomonas aeruginosa was “R (Bacteria can replicate after the treatment)”. For the same compound, the “B: Pseudomonas aeruginosa (irradiation), replication” value (from here on “B: Pseudomonas aeruginosa”) in the assay with Pseudomonas aeruginosa is “NR (No replication)”.
As for `CN(C)c1ccc(O)c2c1C[C@H]1C[C@H]3[C@H](N(C)C)C(O)=C(C(N)=O)C(=O)[C@@]3(O)C(O)=C1C2=O` [Minocycline], in assay [1], the “E: Staphylococcus aureus MU500 (no irradiation), replication” value was “R (Bacteria can replicate after the treatment)” and the “F: Staphylococcus aureus MU500” value is “NR (No replication)”. Also, in the assay with Acinetobacter, the “C: Acinetobacter (no irradiation), replication” value was “R (Bacteria can replicate after the treatment)” and the “D Acinetobacter (irradiation)” value is “NR (No replication)”. Moreover, in the assay with Pseudomonas aeruginosa, the “A: Pseudomonas aeruginosa (no irradiation), replication” value is reported as “R (Bacteria can replicate after the treatment)” and the “B: Pseudomonas aeruginosa” value is given as “NR (No replication)”.
As for `CN(C)[C@@H]1C(O)=C(C(=O)NCNCCCC[C@H](N)C(=O)O)C(=O)[C@@]2(O)C(O)=C3C(=O)c4c(O)cccc4[C@@](C)(O)[C@H]3C[C@@H]12` [Lymecycline], in assay [1], the “E: Staphylococcus aureus MU500 (no irradiation), replication” value was “R (Bacteria can replicate after the treatment)” and the “F: Staphylococcus aureus MU500” value is “NR (No replication)”. Besides, in the assay on Acinetobacter, the “C: Acinetobacter (no irradiation), replication” value is “R (Bacteria can replicate after the treatment)” and the “D Acinetobacter (irradiation)” value is given as “NR (No replication)”. Besides, in the assay on Pseudomonas aeruginosa, the “A: Pseudomonas aeruginosa (no irradiation), replication” value is on record as “R (Bacteria can replicate after the treatment)” and the “B: Pseudomonas aeruginosa” value was “NR (No replication)”.
Turning to `NC[C@H]1O[C@H](O[C@H]2[C@H](O)[C@@H](O[C@H]3O[C@H](CO)[C@@H](O)[C@H](N)[C@H]3O)[C@H](N)C[C@@H]2N)[C@H](N)C[C@@H]1O` [Tobramycin], in assay [1], the “E: Staphylococcus aureus MU500 (no irradiation), replication” value was “R (Bacteria can replicate after the treatment)” and the “F: Staphylococcus aureus MU500” value is “R (Bacteria can replicate after the treatment)”. Moreover, in assay [2] (setting [11]), the CFU first run is 416 CFU, the CFU second run is 481 CFU, the Killed first run worked out at 36% and the Killed second run turned out to be 25%. In assay [2] (setting [12]), this compound displayed a CFU first run of 144 CFU, a CFU second run of 159 CFU, a Killed first run of 78% and a Killed second run of 75%. Moreover, in the assay on Acinetobacter, the “C: Acinetobacter (no irradiation), replication” value is recorded as “R (Bacteria can replicate after the treatment)” and the “D Acinetobacter (irradiation)” value is “R (Bacteria can replicate after the treatment)”. Also, in the assay on Pseudomonas aeruginosa, the “A: Pseudomonas aeruginosa (no irradiation), replication” value is reported as “R (Bacteria can replicate after the treatment)” and the “B: Pseudomonas aeruginosa” value is given as “NR (No replication)”.
`CN(C)[C@@H]1C(O)=C(C(N)=O)C(=O)[C@@]2(O)C(O)=C3C(=O)c4c(O)cccc4[C@@](C)(O)[C@H]3[C@H](O)[C@@H]12` [Oxytetracycline]: in assay [1], the “E: Staphylococcus aureus MU500 (no irradiation), replication” value is “R (Bacteria can replicate after the treatment)” and the “F: Staphylococcus aureus MU500” value is recorded as “NR (No replication)”. Also, in the assay with Acinetobacter, the “C: Acinetobacter (no irradiation), replication” value was “R (Bacteria can replicate after the treatment)” and the “D Acinetobacter (irradiation)” value is given as “NR (No replication)”. In the assay with Pseudomonas aeruginosa, the “A: Pseudomonas aeruginosa (no irradiation), replication” value was “R (Bacteria can replicate after the treatment)” and the “B: Pseudomonas aeruginosa” value was “NR (No replication)”.
With `CN(C)c1cc(NC(=O)CNC(C)(C)C)c(O)c2c1C[C@H]1C[C@H]3[C@H](N(C)C)C(O)=C(C(N)=O)C(=O)[C@@]3(O)C(O)=C1C2=O` [Tigecycline], in assay [1], the “E: Staphylococcus aureus MU500 (no irradiation), replication” value is reported as “R (Bacteria can replicate after the treatment)” and the “F: Staphylococcus aureus MU500” value was “NR (No replication)”. Besides, in the assay on Acinetobacter, the “C: Acinetobacter (no irradiation), replication” value is given as “R (Bacteria can replicate after the treatment)” and the “D Acinetobacter (irradiation)” value is reported as “NR (No replication)”. In the assay on Pseudomonas aeruginosa, the “A: Pseudomonas aeruginosa (no irradiation), replication” value is listed as “R (Bacteria can replicate after the treatment)” and the “B: Pseudomonas aeruginosa” value was “NR (No replication)”.
Regarding `C[C@H]1COc2c(N3CCN(C)CC3)c(F)cc3c(=O)c(C(=O)O)cn1c23` [Levofloxacin], in assay [1], the “E: Staphylococcus aureus MU500 (no irradiation), replication” value was “R (Bacteria can replicate after the treatment)” and the “F: Staphylococcus aureus MU500” value is listed as “PR (Bacteria can replicate partially)”. In the assay on Acinetobacter, the “C: Acinetobacter (no irradiation), replication” value is listed as “R (Bacteria can replicate after the treatment)” and the “D Acinetobacter (irradiation)” value was “NR (No replication)”. In the assay on Pseudomonas aeruginosa, the “A: Pseudomonas aeruginosa (no irradiation), replication” value is reported as “R (Bacteria can replicate after the treatment)” and the “B: Pseudomonas aeruginosa” value is reported as “NR (No replication)”.
On to `COc1c(N2CCNC(C)C2)c(F)cc2c(=O)c(C(=O)O)cn(C3CC3)c12` (stereo not shown) [Gatifloxacin], for which, in assay [1], the “E: Staphylococcus aureus MU500 (no irradiation), replication” value is “R (Bacteria can replicate after the treatment)” and the “F: Staphylococcus aureus MU500” value is given as “PR (Bacteria can replicate partially)”. Besides, in the assay on Acinetobacter, the “C: Acinetobacter (no irradiation), replication” value is “R (Bacteria can replicate after the treatment)” and the “D Acinetobacter (irradiation)” value is given as “NR (No replication)”. Further, in the assay on Pseudomonas aeruginosa, the “A: Pseudomonas aeruginosa (no irradiation), replication” value was “R (Bacteria can replicate after the treatment)” and the “B: Pseudomonas aeruginosa” value is “NR (No replication)”.
